# Reference: ChEMBL document CHEMBL1141548, “Synthesis of a small library of 2-phenoxy-1,4-naphthoquinone and 2-phenoxy-1,4-anthraquinone derivatives bearing anti-trypanosomal and anti-leishmanial activity” (Bioorg Med Chem Lett, 2008)
# Legend:
# [1] = Selectivity index, ratio of IC50 for rat L6 cells to IC50 for Leishmania donovani MHOM-ET-67/L82; assay type: functional, cell-based
# [2] = Selectivity index, ratio of IC50 for rat L6 cells to IC50 for Trypanosoma brucei rhodesiense STIB900; assay type: functional, cell-based
# [3] = test system: Trypanosoma brucei rhodesiense; test: Antitrypanosomal activity against Trypanosoma brucei rhodesiense STIB900 trypomastigotes by microplate assay; assay type: functional, organism-based
# Leishmania donovani = test: Antileishmanial activity against Leishmania donovani MHOM-ET-67/L82 amastigotes by microplate assay; assay type: functional, organism-based
# L6 = test: Cytotoxicity against rat L6 cells; assay type: cell-based
# [4] = Selectivity index, ratio of IC50 for rat L6 cells to IC50 for Trypanosoma cruzi Tulahuen C4; assay type: functional, cell-based
# Trypanosoma cruzi = test: Antitrypanosomal activity against Trypanosoma cruzi Tulahuen C4 amastigotes by microplate assay; assay type: functional, organism-based
structure (smiles),measurement,setting,value
O=C1C=C(Oc2ccc(Br)cc2Br)C(=O)c2ccccc21,selectivity index,[1],12.1
same,selectivity index,[2],55.7
same,IC50,[3],0.51 µM
same,IC50,Leishmania donovani,2.37 µM
same,IC50,L6,28.5 µM
same,selectivity index,[4],0.83
same,IC50,Trypanosoma cruzi,34.3 µM
O=C1C=C(Oc2ccc(F)cc2F)C(=O)c2ccccc21,selectivity index,[1],2.41
same,selectivity index,[2],14.2
same,IC50,[3],0.39 µM
same,IC50,Leishmania donovani,2.29 µM
same,IC50,L6,5.51 µM
same,selectivity index,[4],1.1
same,IC50,Trypanosoma cruzi,5 µM
O=C1C=C(Oc2ccc(Cl)cc2Cl)C(=O)c2cc3ccccc3cc21,selectivity index,[1],4.15
same,selectivity index,[2],31
same,IC50,[3],0.065 µM
same,IC50,Leishmania donovani,0.49 µM
same,IC50,L6,2.01 µM
same,selectivity index,[4],0.15
same,IC50,Trypanosoma cruzi,13.7 µM
O=C1C=C(Oc2ccc(Cl)cc2F)C(=O)c2cc3ccccc3cc21,selectivity index,[1],5.01
same,selectivity index,[2],12.4
same,IC50,[3],0.21 µM
same,IC50,Leishmania donovani,0.53 µM
same,IC50,L6,2.64 µM
same,selectivity index,[4],0.12
same,IC50,Trypanosoma cruzi,21.5 µM
Cc1ccc(OC2=CC(=O)c3cc4ccccc4cc3C2=O)c(C)c1,selectivity index,[1],7.53
same,selectivity index,[2],13.2
same,IC50,[3],0.31 µM
same,IC50,Leishmania donovani,0.55 µM
same,IC50,L6,4.13 µM
same,selectivity index,[4],0.18
same,IC50,Trypanosoma cruzi,22.5 µM
O=C1C=C(Oc2ccc(F)cc2Br)C(=O)c2cc3ccccc3cc21,selectivity index,[1],3.24
same,selectivity index,[2],14.1
same,IC50,[3],0.08 µM
same,IC50,Leishmania donovani,0.35 µM
same,IC50,L6,1.13 µM
same,selectivity index,[4],0.39
same,IC50,Trypanosoma cruzi,2.87 µM
Cc1ccc(OC2=CC(=O)c3cc4ccccc4cc3C2=O)cc1Br,selectivity index,[1],7.1
same,selectivity index,[2],17.4
same,IC50,[3],0.15 µM
same,IC50,Leishmania donovani,0.36 µM
same,IC50,L6,2.56 µM
same,selectivity index,[4],0.4
same,IC50,Trypanosoma cruzi,6.36 µM
O=C1C=C(Oc2ccccc2)C(=O)c2cc3ccccc3cc21,selectivity index,[1],2.94
same,selectivity index,[2],20
same,IC50,[3],0.05 µM
same,IC50,Leishmania donovani,0.34 µM
same,IC50,L6,1 µM
same,selectivity index,[4],0.21
same,IC50,Trypanosoma cruzi,4.66 µM
O=C1C=C(Oc2ccc(F)cc2F)C(=O)c2cc3ccccc3cc21,selectivity index,[1],7.01
same,selectivity index,[2],8.43
same,IC50,[3],0.24 µM
same,IC50,Leishmania donovani,0.28 µM
same,IC50,L6,1.98 µM
same,selectivity index,[4],0.28
same,IC50,Trypanosoma cruzi,7.14 µM
O=C1C=C(Oc2ccc(Cl)cc2Cl)C(=O)c2ccccc21,selectivity index,[1],3.94
same,selectivity index,[2],17.8
same,IC50,[3],0.29 µM
same,IC50,Leishmania donovani,1.32 µM
same,IC50,L6,5.18 µM
same,selectivity index,[4],0.87
same,IC50,Trypanosoma cruzi,5.95 µM
O=C1C=C(Oc2ccc(Cl)cc2F)C(=O)c2ccccc21,selectivity index,[1],6.54
same,selectivity index,[2],12.5
same,IC50,[3],0.37 µM
same,IC50,Leishmania donovani,0.7 µM
same,IC50,L6,4.58 µM
same,selectivity index,[4],1.03
same,IC50,Trypanosoma cruzi,4.43 µM
Cc1ccc(OC2=CC(=O)c3ccccc3C2=O)c(C)c1,selectivity index,[1],10.3
same,selectivity index,[2],24.4
same,IC50,[3],0.22 µM
same,IC50,Leishmania donovani,0.51 µM
same,IC50,L6,5.26 µM
same,selectivity index,[4],2.13
same,IC50,Trypanosoma cruzi,2.47 µM
O=C1C=C(Oc2ccc(F)cc2Br)C(=O)c2ccccc21,selectivity index,[1],2.58
same,selectivity index,[2],13.1
same,IC50,[3],0.36 µM
same,IC50,Leishmania donovani,1.81 µM
same,IC50,L6,4.66 µM
same,selectivity index,[4],1.25
same,IC50,Trypanosoma cruzi,3.74 µM
Cc1ccc(OC2=CC(=O)c3ccccc3C2=O)cc1Br,selectivity index,[1],5.34
same,selectivity index,[2],16.4
same,IC50,[3],0.3 µM
same,IC50,Leishmania donovani,0.92 µM
same,IC50,L6,4.92 µM
same,selectivity index,[4],1.71
same,IC50,Trypanosoma cruzi,2.88 µM
O=C1C=C(Oc2ccccc2)C(=O)c2ccccc21,selectivity index,[1],4.69
same,selectivity index,[2],74
same,IC50,[3],0.08 µM
same,IC50,Leishmania donovani,1.26 µM
same,IC50,L6,5.92 µM
same,selectivity index,[4],4.7
same,IC50,Trypanosoma cruzi,1.26 µM
O=C1C=C(Oc2ccc(Br)cc2Br)C(=O)c2cc3ccccc3cc21,selectivity index,[1],4.71
same,selectivity index,[2],15.4
same,IC50,[3],0.14 µM
same,IC50,Leishmania donovani,0.47 µM
same,IC50,L6,2.19 µM
same,selectivity index,[4],0.13
same,IC50,Trypanosoma cruzi,16.4 µM
CCCCCCCCCCCCCCCCOP(=O)([O-])OCC[N+](C)(C)C [MILTEFOSINE],IC50,Leishmania donovani,0.31 µM
